In this test the test system is HCT116 colorectal cancer cells. In words: Cisplatin sensitization assay (96 h MTS cell viability).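 Note: compound concentration needed to lower the IC50 of Cisplatin alone by a set fold.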 The test is classed as cell-based. Particulars: Cisplatin sensitization value. The gist of the method:
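The MTS viability read, after 1 h with reagent, followed 96 h of co-treatment at 37° C. in 5% CO2. Both compound and cisplatin were titrated 2-fold from a 10 μM top final concentration in a complete concentration matrix on HCT116 cells. Scores +++/++/+ reflect cisplatin sensitization value ranges.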
As to `CN1CCN(C(=O)C2CCN(c3c(F)cncc3NC(=O)c3c(N)nn4cc(F)cnc34)CC2)CC1` [I-G-4, 2-amino-6-fluoro-N-(5-fluoro-4-(4-(4-methylpiperazine-1-carbonyl)piperidin-1-yl)pyridin-3-yl)pyrazolo[1,5-a]pyrimidine-3-carboxamide], the “Cisplatin Sensitization Assay” value is given as “+++ (Compounds with a Cisplatin sensitization value of <0.02 μM are marked with “+++.”)”.
The value for `CS(=O)(=O)N1CCN(c2ccncc2NC(=O)c2c(N)nn3cc(F)cnc23)CC1` [I-N-178, 2-amino-6-fluoro-N-(4-(4-(methylsulfonyl)piperazin-1-yl)pyridin-3-yl)pyrazolo[1,5-a]pyrimidine-3-carboxamide] was “+++ (Compounds with a Cisplatin sensitization value of <0.02 μM are marked with “+++.”)”; that for `Nc1nn2cc(F)cnc2c1C(=O)Nc1cncc(F)c1N1CCC(C(=O)N2CCNC3(CC3)C2)CC1` [I-G-28, N-(4-(4-(4,7-diazaspiro[2.5]octane-7-carbonyl)piperidin-1-yl)-5-fluoropyridin-3-yl)-2-amino-6-fluoropyrazolo[1,5-a]pyrimidine-3-carboxamide] was “+++ (Compounds with a Cisplatin sensitization value of <0.02 μM are marked with “+++.”)”.
Then `CC(C)(O)CN1CCN(c2c(F)cncc2NC(=O)c2c(N)nn3cc(F)cnc23)CC1` [I-N-139, 2-amino-6-fluoro-N-(5-fluoro-4-(4-(2-hydroxy-2-methylpropyl)piperazin-1-yl)pyridin-3-yl)pyrazolo[1,5-a]pyrimidine-3-carboxamide], with “+++ (Compounds with a Cisplatin sensitization value of <0.02 μM are marked with “+++.”)”.
As to `CN1CCOC2(CCN(c3ccncc3NC(=O)c3c(N)nn4cc(F)cnc34)CC2)C1` [I-N-183, 2-amino-6-fluoro-N-(4-(4-methyl-1-oxa-4,9-diazaspiro[5.5]undecan-9-yl)pyridin-3-yl)pyrazolo[1,5-a]pyrimidine-3-carboxamide], the “Cisplatin Sensitization Assay” value is on record as “+++ (Compounds with a Cisplatin sensitization value of <0.02 μM are marked with “+++.”)”.
The value for `COC1CN(C(=O)C2CCN(c3ccncc3NC(=O)c3c(N)nn4cc(F)cnc34)CC2)C1` [I-G-78, 2-amino-6-fluoro-N-(4-(4-(3-methoxyazetidine-1-carbonyl)piperidin-1-yl)pyridin-3-yl)pyrazolo[1,5-a]pyrimidine-3-carboxamide] was “+++ (Compounds with a Cisplatin sensitization value of <0.02 μM are marked with “+++.”)”; that for `CN1CCN(c2ccncc2NC(=O)c2c(N)nn3cc(F)cnc23)CC1` [I-N-3, 2-amino-6-fluoro-N-(4-(4-methylpiperazin-1-yl)pyridin-3-yl)pyrazolo[1,5-a]pyrimidine-3-carboxamide] was “+++ (Compounds with a Cisplatin sensitization value of <0.02 μM are marked with “+++.”)”; that for `CN1CCN(c2c(C#N)cncc2NC(=O)c2c(N)nn3cc(F)cnc23)CC1` [I-N-113, 2-amino-N-(5-cyano-4-(4-methylpiperazin-1-yl)pyridin-3-yl)-6-fluoropyrazolo[1,5-a]pyrimidine-3-carboxamide] was “+ (Compounds with a Cisplatin sensitization value >0.2 μM but <5 μM are marked with “+.”)”.
Then `C[C@@H]1CN(C(=O)C2CCN(c3c(F)cncc3NC(=O)c3c(N)nn4cc(F)cnc34)CC2)CCN1C` [I-G-50, (R)-2-amino-N-(4-(4-(3,4-dimethylpiperazine-1-carbonyl)piperidin-1-yl)-5-fluoropyridin-3-yl)-6-fluoropyrazolo[1,5-a]pyrimidine-3-carboxamide], with “+++ (Compounds with a Cisplatin sensitization value of <0.02 μM are marked with “+++.”)”; and `CN1CCN(C(=O)C2(C#N)CCN(c3c(F)cncc3NC(=O)c3c(N)nn4cc(F)cnc34)CC2)CC1` [I-G-25, 2-amino-N-(4-(4-cyano-4-(4-methylpiperazine-1-carbonyl)piperidin-1-yl)-5-fluoropyridin-3-yl)-6-fluoropyrazolo[1,5-a]pyrimidine-3-carboxamide], with “+++ (Compounds with a Cisplatin sensitization value of <0.02 μM are marked with “+++.”)”; and `CN1CCN(CC2CCN(c3c(F)cncc3NC(=O)c3c(N)nn4cc(C5(C#N)CC5)cnc34)CC2)CC1` [I-N-192, 2-amino-6-(1-cyanocyclopropyl)-N-(5-fluoro-4-(4-((4-methylpiperazin-1-yl)methyl)piperidin-1-yl)pyridin-3-yl)pyrazolo[1,5-a]pyrimidine-3-carboxamide], with “+++ (Compounds with a Cisplatin sensitization value of <0.02 μM are marked with “+++.”)”.
For the compound `Nc1nn2cc(Cl)cnc2c1C(=O)Nc1cncc(F)c1N1CCN(C2COC2)CC1` [I-N-117, 2-amino-6-chloro-N-(5-fluoro-4-(4-(oxetan-3-yl)piperazin-1-yl)pyridin-3-yl)pyrazolo[1,5-a]pyrimidine-3-carboxamide], the “Cisplatin Sensitization Assay” value is “+++ (Compounds with a Cisplatin sensitization value of <0.02 μM are marked with “+++.”)”.
Then `N#CCc1cnc2c(C(=O)Nc3cnccc3OCCCO)c(N)nn2c1` [I-O-40, 2-amino-6-(cyanomethyl)-N-(4-(3-hydroxypropoxy)pyridin-3-yl)pyrazolo[1,5-a]pyrimidine-3-carboxamide], with “++ (Compounds with a Cisplatin sensitization value >0.02 μM but <0.2 μM are marked with “++.”)”; and `Nc1nn2cc(F)cnc2c1C(=O)Nc1cnccc1-c1ccc(S(=O)(=O)N2CCC2)cc1` [I-C-64, 2-amino-N-(4-(4-(azetidin-1-ylsulfonyl)phenyl)pyridin-3-yl)-6-fluoropyrazolo[1,5-a]pyrimidine-3-carboxamide], with “+++ (Compounds with a Cisplatin sensitization value of <0.02 μM are marked with “+++.”)”.
Then `Nc1nn2cc(F)cnc2c1C(=O)Nc1cncc(F)c1N1CCN(C(=O)C2CNC2)CC1` [I-N-168, 2-amino-N-(4-(4-(azetidine-3-carbonyl)piperazin-1-yl)-5-fluoropyridin-3-yl)-6-fluoropyrazolo[1,5-a]pyrimidine-3-carboxamide], with “+ (Compounds with a Cisplatin sensitization value >0.2 μM but <5 μM are marked with “+.”)”; and `CN1CC2(CCC1=O)CCN(c1ccncc1NC(=O)c1c(N)nn3cc(F)cnc13)CC2` [I-N-231, 2-amino-6-fluoro-N-(4-(2-methyl-3-oxo-2,9-diazaspiro[5.5]undecan-9-yl)pyridin-3-yl)pyrazolo[1,5-a]pyrimidine-3-carboxamide], with “+++ (Compounds with a Cisplatin sensitization value of <0.02 μM are marked with “+++.”)”; and `Nc1nn2cc(F)cnc2c1C(=O)Nc1cnccc1N1CCC(C(=O)N2CCCC2)CC1` [I-G-83, 2-amino-6-fluoro-N-(4-(4-(pyrrolidine-1-carbonyl)piperidin-1-yl)pyridin-3-yl)pyrazolo[1,5-a]pyrimidine-3-carboxamide], with “+++ (Compounds with a Cisplatin sensitization value of <0.02 μM are marked with “+++.”)”.
Then `N#CCc1cnc2c(C(=O)Nc3cnccc3OCC3CC3)c(N)nn2c1` [I-O-32, 2-amino-6-(cyanomethyl)-N-(4-(cyclopropylmethoxy)pyridin-3-yl)pyrazolo[1,5-a]pyrimidine-3-carboxamide], with “+++ (Compounds with a Cisplatin sensitization value of <0.02 μM are marked with “+++.”)”; and `Cn1cncc1-c1c(F)cncc1NC(=O)c1c(N)nn2cc(F)cnc12` [I-C-79, 2-amino-6-fluoro-N-(5-fluoro-4-(1-methyl-1H-imidazol-5-yl)pyridin-3-yl)pyrazolo[1,5-a]pyrimidine-3-carboxamide], with “+++ (Compounds with a Cisplatin sensitization value of <0.02 μM are marked with “+++.”)”; and `Cc1cncc(NC(=O)c2c(N)nn3cc(F)cnc23)c1N1CCC(C(=O)N2CCNCC2)CC1` [I-G-56, 2-amino-6-fluoro-N-(5-methyl-4-(4-(piperazine-1-carbonyl)piperidin-1-yl)pyridin-3-yl)pyrazolo[1,5-a]pyrimidine-3-carboxamide], with “+++ (Compounds with a Cisplatin sensitization value of <0.02 μM are marked with “+++.”)”.
For the compound `CN1CCN(c2ccncc2NC(=O)c2c(N)nn3cc(F)cnc23)CC12CCOCC2` [I-N-133, 2-amino-6-fluoro-N-(4-(1-methyl-9-oxa-1,4-diazaspiro[5.5]undecan-4-yl)pyridin-3-yl)pyrazolo[1,5-a]pyrimidine-3-carboxamide], the “Cisplatin Sensitization Assay” value is reported as “++ (Compounds with a Cisplatin sensitization value >0.02 μM but <0.2 μM are marked with “++.”)”.
Regarding `Nc1nn2cc(Cl)cnc2c1C(=O)Nc1cnccc1N1CCN(C2COC2)CC1` [I-N-58, 2-amino-6-chloro-N-(4-(4-(oxetan-3-yl)piperazin-1-yl)pyridin-3-yl)pyrazolo[1,5-a]pyrimidine-3-carboxamide], the “Cisplatin Sensitization Assay” value is “++ (Compounds with a Cisplatin sensitization value >0.02 μM but <0.2 μM are marked with “++.”)”.
As for `Cc1ncnn1-c1c(F)cncc1NC(=O)c1c(N)nn2cc(F)cnc12` [I-N-242, 2-amino-6-fluoro-N-(5-fluoro-4-(5-methyl-1H-1,2,4-triazol-1-yl)pyridin-3-yl)pyrazolo[1,5-a]pyrimidine-3-carboxamide], the “Cisplatin Sensitization Assay” value is reported as “+ (Compounds with a Cisplatin sensitization value >0.2 μM but <5 μM are marked with “+.”)”.
With `CC(=O)N1CCC2(CCN(c3ccncc3NC(=O)c3c(N)nn4cc(F)cnc34)CC2)C1` [I-N-257, N-(4-(2-acetyl-2,8-diazaspiro[4.5]decan-8-yl)pyridin-3-yl)-2-amino-6-fluoropyrazolo[1,5-a]pyrimidine-3-carboxamide], the “Cisplatin Sensitization Assay” value is “+++ (Compounds with a Cisplatin sensitization value of <0.02 μM are marked with “+++.”)”.
Turning to `Nc1nn2cc(F)cnc2c1C(=O)Nc1cnccc1N1CCC(C(=O)N2CC(F)C2)CC1` [I-G-82, 2-amino-6-fluoro-N-(4-(4-(3-fluoroazetidine-1-carbonyl)piperidin-1-yl)pyridin-3-yl)pyrazolo[1,5-a]pyrimidine-3-carboxamide], the “Cisplatin Sensitization Assay” value is “+++ (Compounds with a Cisplatin sensitization value of <0.02 μM are marked with “+++.”)”.
